# Measurements from patent US5328902A, “7-(substituted)-9-[(substituted glycyl)amido]-6-demethyl-6-deoxytetracyclines” (American Cyanamid Co., priority 1992, dated 1994).
# Experiments:
# Assay type in all cases: cell-based
# E. coli UBMS 88-1 Tet B = experiment: microbe, parasite or virus in culture; settings: E. coli UBMS 88-1 Tet B; 18 hours at 35° C.
# S. aureus UBMS 90-3 = experiment: MIC, agar dilution; settings: S. aureus UBMS 90-3
# E. coli J2175 = experiment: MIC, agar dilution; settings: E. coli J2175
# E. coli J3272 Tet D = experiment: microbe, parasite or virus in culture; settings: E. coli J3272 Tet D
# [1] = tested on: S. hemolyticus AVHAH 88-3; experiment: MIC, agar dilution; settings: S. hemolyticus AVHAH 88-3
# S. aureus IVES 2943 = experiment: MIC, agar dilution; settings: S. aureus IVES 2943
# E. coli UBMS 89-1 Tet M = experiment: microbe, parasite or virus in culture; settings: E. coli UBMS 89-1 Tet M
# E. coli #311 (MP) = experiment: MIC, agar dilution; settings: E. coli #311 (MP)
# E. coli BAJ9003 IMP MUT = experiment: microbe, parasite or virus in culture; settings: E. coli BAJ9003 IMP MUT
# [2] = tested on: S. aureus UBMS 88-5 Tet M; experiment: microbe, parasite or virus in culture; settings: S. aureus UBMS 88-5 Tet M
# E. coli ATCC 25922 = experiment: MIC, agar dilution; settings: E. coli ATCC 25922
# [3] = tested on: S. aureus UBMS 90-2 Tet M; experiment: microbe, parasite or virus in culture; settings: S. aureus UBMS 90-2 Tet M
# [4] = tested on: S. aureus UBMS 90-1 Tet M; experiment: microbe, parasite or virus in culture; settings: S. aureus UBMS 90-1 Tet M
# E. coli UBMS 90-5 = experiment: MIC, agar dilution
# S. aureus ATCC 29213 = experiment: MIC, agar dilution; settings: S. aureus ATCC 29213
# E. coli UBMS 90-4 Tet M = experiment: microbe, parasite or virus in culture; settings: E. coli UBMS 90-4 Tet M
# [5] = tested on: E. coli UBMS 89-2 Tet sens.; experiment: MIC, agar dilution; settings: E. coli UBMS 89-2 Tet sens.
# [6] = tested on: X. maltophilia NEMC 87210; experiment: MIC, agar dilution
# [7] = tested on: E. coli MC 4100 TNIOC Tet B; experiment: microbe, parasite or virus in culture; settings: E. coli MC 4100 TNIOC Tet B
# Enterococcus 12201 = experiment: MIC, agar dilution; settings: Enterococcus 12201
# S. aureus SMITH (MP) = experiment: MIC, agar dilution; settings: S. aureus SMITH (MP)
# S. aureus UBMS 88-4 = experiment: MIC, agar dilution; settings: S. aureus UBMS 88-4
# [8] = tested on: E. coli MC 4100 Tet sens.; experiment: MIC, agar dilution
# S. aureus NEMC 8769 = experiment: MIC, agar dilution; settings: S. aureus NEMC 8769
# E. coli J3272 Tet C = experiment: microbe, parasite or virus in culture; settings: E. coli J3272 Tet C
# [9] = tested on: S. aureus UBMS 88-7 Tet K; experiment: microbe, parasite or virus in culture; settings: S. aureus UBMS 88-7 Tet K
# E. coli PRP1 Tet A = experiment: microbe, parasite or virus in culture; settings: E. coli PRP1 Tet A
# E. faecalis ATCC 29212 = experiment: MIC, agar dilution; settings: E. faecalis ATCC 29212
# [10] = tested on: Ps. acruginosa ATCC 27853; experiment: MIC, agar dilution; settings: Ps. acruginosa ATCC 27853
# S. aureus ROSE (MP) = experiment: MIC, agar dilution; settings: S. aureus ROSE (MP)
# S. mariescens FPOR 8733 = experiment: MIC, agar dilution
# S. aureus IVES 1 983 = experiment: MIC, agar dilution; settings: S. aureus IVES 1 983
Compound,MIC (E. coli UBMS 88-1 Tet B),MIC (S. aureus UBMS 90-3),MIC (E. coli J2175),MIC (E. coli J3272 Tet D),MIC [1],MIC (S. aureus IVES 2943),MIC (E. coli UBMS 89-1 Tet M),MIC (E. coli #311 (MP)),MIC (E. coli BAJ9003 IMP MUT),MIC [2],MIC (E. coli ATCC 25922),MIC [3],MIC [4],MIC (E. coli UBMS 90-5),MIC (S. aureus ATCC 29213),MIC (E. coli UBMS 90-4 Tet M),MIC [5],MIC [6],MIC [7],MIC (Enterococcus 12201),further results
"CN(C)c1cc(NC(=O)CNCCO)c(O)c2c1CC1CC3C(N(C)C)C(O)=C(C(N)=O)C(=O)C3(O)C(O)=C1C2=O.Cl (stereo not drawn) [P, [4S-(4alpha,12aalpha)]-4,7-Bis(dimethylamino)-1.4,4a,5,5a,6,11,12a-octahydro-3,10, 12,12a-tetrahydroxy-9-[[[(2-hydroxyethyl)amino]acetyl]amino]-1,11-dioxo-2-naphthacenecarboxamide monohydrochloride]",> 32 µg/mL,8 µg/mL,32 µg/mL,16 µg/mL,32 µg/mL,> 32 µg/mL,> 32 µg/mL,16 µg/mL,2 µg/mL,32 µg/mL,16 µg/mL,16 µg/mL,32 µg/mL,32 µg/mL,8 µg/mL,32 µg/mL,> 32 µg/mL,> 32 µg/mL,> 32 µg/mL,8 µg/mL,MIC (S. aureus SMITH (MP)): 4 µg/mL; MIC (S. aureus UBMS 88-4): 8 µg/mL; MIC [8]: 4 µg/mL; MIC (S. aureus NEMC 8769): 4 µg/mL; MIC (E. coli J3272 Tet C): > 32 µg/mL; MIC [9]: 32 µg/mL; MIC (E. coli PRP1 Tet A): > 32 µg/mL; MIC (E. faecalis ATCC 29212): 4 µg/mL; MIC [10]: > 32 µg/mL; MIC (S. aureus ROSE (MP)): > 32 µg/mL; MIC (S. mariescens FPOR 8733): > 32 µg/mL; MIC (S. aureus IVES 1 983): > 32 µg/mL
CN(CCO)CC(=O)Nc1cc(N(C)C)c2c(c1O)C(=O)C1=C(O)[C@]3(O)C(=O)C(C(N)=O)=C(O)[C@@H](N(C)C)C3CC1C2 (stereo partly shown) [Q],32 µg/mL,8 µg/mL,32 µg/mL,32 µg/mL,16 µg/mL,> 32 µg/mL,32 µg/mL,32 µg/mL,2 µg/mL,16 µg/mL,32 µg/mL,16 µg/mL,32 µg/mL,32 µg/mL,16 µg/mL,16 µg/mL,32 µg/mL,8 µg/mL,> 32 µg/mL,4 µg/mL,MIC (S. aureus SMITH (MP)): 8 µg/mL; MIC (S. aureus UBMS 88-4): 8 µg/mL; MIC [8]: 4 µg/mL; MIC (S. aureus NEMC 8769): 8 µg/mL; MIC (E. coli J3272 Tet C): > 32 µg/mL; MIC [9]: 32 µg/mL; MIC (E. coli PRP1 Tet A): > 32 µg/mL; MIC (E. faecalis ATCC 29212): 4 µg/mL; MIC [10]: > 32 µg/mL; MIC (S. aureus ROSE (MP)): > 32 µg/mL; MIC (S. mariescens FPOR 8733): 16 µg/mL; MIC (S. aureus IVES 1 983): > 32 µg/mL
"C#CCN(C)CC(=O)Nc1cc(N(C)C)c2c(c1O)C(=O)C1=C(O)[C@]3(O)C(=O)C(C(N)=O)=C(O)[C@@H](N(C)C)[C@@H]3C[C@@H]1C2 [V, [4S-(4alpha,12aalpha)]-4,7-Bis(dimethylamino)-1,4,4a,5,5a,6,11,12a-octahydro-3,10, 12,12a-tetrahydroxy-9-[[[methyl-2-propynylamino]acetyl]amino]-1,11-dioxo-2-naphthacenecarboxamide]",> 32 µg/mL,4 µg/mL,> 32 µg/mL,> 32 µg/mL,32 µg/mL,> 32 µg/mL,> 32 µg/mL,> 32 µg/mL,4 µg/mL,8 µg/mL,> 32 µg/mL,8 µg/mL,16 µg/mL,> 32 µg/mL,4 µg/mL,> 32 µg/mL,> 32 µg/mL,32 µg/mL,> 32 µg/mL,8 µg/mL,MIC (S. aureus SMITH (MP)): 4 µg/mL; MIC (S. aureus UBMS 88-4): 4 µg/mL; MIC [8]: 32 µg/mL; MIC (S. aureus NEMC 8769): 4 µg/mL; MIC (E. coli J3272 Tet C): > 32 µg/mL; MIC [9]: 32 µg/mL; MIC (E. coli PRP1 Tet A): > 32 µg/mL; MIC (E. faecalis ATCC 29212): 4 µg/mL; MIC [10]: > 32 µg/mL; MIC (S. aureus ROSE (MP)): > 32 µg/mL; MIC (S. mariescens FPOR 8733): > 32 µg/mL; MIC (S. aureus IVES 1 983): > 32 µg/mL
"CN(C)c1cc(NC(=O)CNN2CCCCC2)c(O)c2c1CC1CC3C(N(C)C)C(O)=C(C(N)=O)C(=O)C3(O)C(O)=C1C2=O (stereo not drawn) [W, [4S-(4alpha,12aalpha)]-4,7-Bis(dimethylamino)-1,4,4a,5,5a,6,11,12a-octahydro-3,10, 12,12a-tetrahydroxy-hydroxy-1,11-dioxo-9[[(1-piperidinylamino)acetyl]amino]-2naphthacenecarboxamide]",> 32 µg/mL,16 µg/mL,> 32 µg/mL,> 32 µg/mL,> 32 µg/mL,> 32 µg/mL,> 32 µg/mL,> 32 µg/mL,16 µg/mL,> 32 µg/mL,> 32 µg/mL,> 32 µg/mL,> 32 µg/mL,> 32 µg/mL,32 µg/mL,> 32 µg/mL,> 32 µg/mL,> 32 µg/mL,> 32 µg/mL,> 32 µg/mL,MIC (S. aureus SMITH (MP)): 16 µg/mL; MIC (S. aureus UBMS 88-4): > 32 µg/mL; MIC [8]: 32 µg/mL; MIC (S. aureus NEMC 8769): > 32 µg/mL; MIC (E. coli J3272 Tet C): > 32 µg/mL; MIC [9]: > 32 µg/mL; MIC (E. coli PRP1 Tet A): > 32 µg/mL; MIC (E. faecalis ATCC 29212): > 32 µg/mL; MIC [10]: > 32 µg/mL; MIC (S. aureus ROSE (MP)): > 32 µg/mL; MIC (S. mariescens FPOR 8733): > 32 µg/mL; MIC (S. aureus IVES 1 983): > 32 µg/mL
"CN(C)c1cc(NC(=O)CNOCc2ccccc2)c(O)c2c1C[C@H]1C[C@H]3[C@H](N(C)C)C(O)=C(C(N)=O)C(=O)[C@@]3(O)C(O)=C1C2=O [X, [4S-(4-alpha,12aalpha)]-4,7-Bis(dimethylamino)-1,4,4a,5,5a,6,11,12a-octahydro-3,10, 12,12a-tetrahydroxy-1,11-dioxo-9-[[[(phenylmethoxy)amino]acetyl]amino]-2-naphthacenecarboxamide]",> 32 µg/mL,1 µg/mL,> 32 µg/mL,16 µg/mL,4 µg/mL,8 µg/mL,16 µg/mL,16 µg/mL,1 µg/mL,2 µg/mL,16 µg/mL,2 µg/mL,2 µg/mL,> 32 µg/mL,1 µg/mL,> 32 µg/mL,> 32 µg/mL,16 µg/mL,> 32 µg/mL,4 µg/mL,MIC (S. aureus SMITH (MP)): 0.5 µg/mL; MIC (S. aureus UBMS 88-4): 1 µg/mL; MIC [8]: 4 µg/mL; MIC (S. aureus NEMC 8769): 1 µg/mL; MIC (E. coli J3272 Tet C): > 32 µg/mL; MIC [9]: 4 µg/mL; MIC (E. coli PRP1 Tet A): > 32 µg/mL; MIC (E. faecalis ATCC 29212): 1 µg/mL; MIC [10]: > 32 µg/mL; MIC (S. aureus ROSE (MP)): 16 µg/mL; MIC (S. mariescens FPOR 8733): > 32 µg/mL; MIC (S. aureus IVES 1 983): 8 µg/mL
